Measurements from ChEMBL document CHEMBL3525956, “Species independence in brain tissue binding using brain homogenates” (Drug Metab Dispos, 2011).

What was measured:
[1] = Fraction unbound in Hartley guinea pig brain homogenates at 1 uM after 6 hrs by equilibrium dialysis method; details: brain homogenate
[2] = Fraction unbound in Wistar Han rat brain homogenates at 1 uM after 6 hrs by equilibrium dialysis method; details: brain homogenate
[3] = Fraction unbound in Sprague-Dawley rat brain homogenates at 1 uM after 6 hrs by equilibrium dialysis method; details: brain homogenate
[4] = Fraction unbound in CD-1 mouse brain homogenates at 1 uM after 6 hrs by equilibrium dialysis method; details: brain homogenate
[5] = Fraction unbound in Beagle dog brain homogenates at 1 uM after 6 hrs by equilibrium dialysis method; details: brain homogenate
[6] = Fraction unbound in human occipital cortex at 1 uM after 6 hrs by equilibrium dialysis method
[7] = Fraction unbound in cynomolgus monkey brain homogenates at 1 uM after 6 hrs by equilibrium dialysis method; details: brain homogenate

| SMILES | fraction unbound at 6 h, 1 µM [1] | fraction unbound at 6 h, 1 µM [2] | fraction unbound at 6 h, 1 µM [3] | fraction unbound at 6 h, 1 µM [4] | fraction unbound at 6 h, 1 µM [5] | fraction unbound at 6 h, 1 µM [6] | fraction unbound at 6 h, 1 µM [7] |
| --- | --- | --- | --- | --- | --- | --- | --- |
| CC(NC(C)(C)C)C(=O)c1cccc(Cl)c1 (stereo unspecified) [BUPROPION] | 0.177 | 0.132 | 0.171 | 0.133 | 0.213 | 0.195 | 0.167 |
| O=c1n(CCCN2CCN(c3cccc(Cl)c3)CC2)nc2ccccn12 [TRAZODONE] | 0.059 | 0.085 | 0.062 | 0.086 | 0.066 | 0.077 | 0.082 |
| Fc1ccc([C@@H]2CCNC[C@H]2COc2ccc3c(c2)OCO3)cc1 [PAROXETINE] | 0.003 | 0.004 | 0.006 | 0.004 | 0.004 | 0.005 | 0.006 |
| CC(CC(c1ccccc1)c1ccccc1)NC(C)(C)C (stereo unspecified) [TERODILINE] | 0.059 | 0.025 | 0.02 | 0.049 | 0.148 | 0.028 | 0.071 |
| CCN(CC)CCNC(=O)c1cc(Cl)c(N)cc1OC [METOCLOPRAMIDE] | 0.237 | 0.224 | 0.145 | 0.23 | 0.294 | 0.295 | 0.413 |
| O=C(O[C@H]1CN2CCC1CC2)N1CCc2ccccc2[C@@H]1c1ccccc1 [SOLIFENACIN] | 0.014 | 0.019 | 0.015 | 0.016 | 0.018 | 0.017 | 0.016 |
| CC(C)(C)NCC(O)COc1ccc(NC(=O)NC2CCCCC2)cc1 (stereo unspecified) [TALINOLOL] | 0.117 | 0.141 | 0.096 | 0.117 | 0.247 | 0.137 | 0.176 |
| CN[C@H]1CC[C@@H](c2ccc(Cl)c(Cl)c2)c2ccccc21 [SERTRALINE] |  |  |  |  |  | 0.001 |  |
| CN(C)CCCN1c2ccccc2Sc2ccc(Cl)cc21 [CHLORPROMAZINE] | 0.003 | 0.003 | 0.002 | 0.003 | 0.003 | 0.003 | 0.004 |
| COCCOC(=O)C1=C(C)NC(C)=C(C(=O)OC(C)C)C1c1cccc([N+](=O)[O-])c1 (stereo unspecified) [NIMODIPINE] | 0.007 | 0.01 | 0.009 | 0.007 | 0.007 | 0.008 | 0.009 |
| CC(C)C[C@H]1C(=O)N2CCC[C@H]2[C@]2(O)O[C@](NC(=O)[C@@H]3C=C4c5cccc6[nH]c(Br)c(c56)C[C@H]4N(C)C3)(C(C)C)C(=O)N12 [BROMOCRIPTINE] | 0.002 | 0.002 | 0.001 | 0.002 | 0.002 | 0.002 | 0.002 |
| CCCCCCCN(CC)CCCC(O)c1ccc(NS(C)(=O)=O)cc1 (stereo unspecified) [IBUTILIDE] | 0.075 | 0.104 | 0.081 | 0.114 | 0.119 | 0.091 | 0.078 |
| NC12CC3CC(CC(C3)C1)C2 [AMANTADINE] | 0.178 | 0.213 | 0.147 | 0.181 | 0.218 | 0.171 | 0.1 |
| CC(=O)CC(c1ccccc1)c1c(O)c2ccccc2oc1=O (stereo unspecified) [WARFARIN] | 0.326 | 0.183 | 0.199 | 0.094 | 0.384 | 0.295 | 0.318 |
| NS(=O)(=O)Cc1noc2ccccc12 [ZONISAMIDE] | 0.389 | 0.327 | 0.598 | 0.299 | 0.428 | 0.308 | 0.386 |
| O=C1NC(=O)C(c2ccccc2)(c2ccccc2)N1 [PHENYTOIN] | 0.082 | 0.1 | 0.134 | 0.088 | 0.259 | 0.095 | 0.114 |
